{"source": "patent US20150139938A1", "about": "“Methods and Compositions for Improving Pial Collateral Circulation and Treating Blood Clotting Disorders” (Ohio State Innovation Foundation, priority 2012, published 2015)", "origin": "cited, not measured here", "test_system": "stroke-induced lesion in the brain of spontaneously hypertensive rats", "conditions": "orally supplemented, earlier work of the inventors", "data": [{"smiles": "CC(C)=CCC/C(C)=C/CC/C(C)=C/CC[C@]1(C)CCc2c(C)c(O)c(C)c(C)c2O1", "note": "[αTCT, α-tocotrienol]", "values": [{"measurement": "protection against stroke-induced lesion in the brain", "value": "protects"}]}]}
